Data published in US8313736B2, “Chemically stable ingredients as lemon odorant” (Firmenich SA, priority 2008, dated 2012).

Columns and labels:
[1] = tested on: Mammalian Erythrocyte Micronucleus; assay: In vivo test for clastogenic effects, Mammalian Erythrocyte Micronucleus Test (OECD 474)
Source text: In vivo test for clastogenic effects performed on 3,6,7-trimethyl-2,6-octadienenitrile and 3,7-dimethyl-2,6-octadienenitrile under the conditions required by the standard test protocol for Mammalian Erythrocyte Micronucleus Test (OECD 474, OECD web site http://lysander.sourceoecd.org/v1=155221/c1=19/nw=1/rpsv/ij/oecdjournals/1607310x/v1n 4/s39/p1) gave the following results: • 3,6,7-trimethyl-2,6-octadienenitrile: the test was negative (i.e. no perceived toxicity) in the dose range between 200-1200 mg/kg. • 3,7-dimethyl-2,6-octadienenitrile: the test was positive (i.e. perceived toxicity) in the dose range between 500-1250 mg/kg (overlapping the dose range of the invention compound herein above). This ingredient has been banned for its clastogenic effect.

[2] = reason for ban; cited from earlier work

CC(C)=CCCC(C)=CC#N [3,7-dimethyl-2,6-octadienenitrile]
Mammalian Erythrocyte Micronucleus Test result (clastogenic effects) ([1]; dose range between 500-1250 mg/kg): positive | Mutagenicity [2]: mutagenic

CC(=CC#N)CCC(C)=C(C)C [3,6,7-trimethyl-2,6-octadienenitrile]
Clastogenicity (induction of chromosome-damages) ([1]; E and Z isomers or a mixture thereof): not clastogenic | Mammalian Erythrocyte Micronucleus Test result (clastogenic effects) ([1]; dose range between 200-1200 mg/kg): negative
